The results in this text go back to ChEMBL document CHEMBL1135965, “A novel dicyanotriterpenoid, 2-cyano-3,12-dioxooleana-1,9(11)-dien-28-onitrile, active at picomolar concentrations for inhibition of nitric oxide production” (Bioorg Med Chem Lett, 2002).

The species named for the assay is Mus musculus. Briefly: Inhibitory activity against production of nitric oxide induced by interferon gamma in mouse macrophages. The format is functional, organism-based.
As to `COC(=O)[C@]12CCC(C)(C)CC1C1C(=O)C=C3[C@@]4(C)C=C(C(=O)O)C(=O)C(C)(C)[C@@H]4CC[C@@]3(C)[C@]1(C)CC2` (stereo not given in full), the IC50 worked out at 9.55 nM.
Under `CC1(C)CC[C@]2(C(=O)n3ccnc3)CC[C@]3(C)[C@H](C(=O)C=C4[C@@]5(C)C=C(C#N)C(=O)C(C)(C)[C@@H]5CC[C@]43C)[C@@H]2C1` stands 0.014 nM; under `CCOC(=O)[C@]12CCC(C)(C)CC1C1C(=O)C=C3[C@@]4(C)C=C(C#N)C(=O)C(C)(C)[C@@H]4CC[C@@]3(C)[C@]1(C)CC2` (stereo not given in full), 0.8 nM.
Under `CC1(C)CC[C@]2(C(=O)OCc3ccccc3)CC[C@]3(C)C(C(=O)C=C4[C@@]5(C)C=C(C#N)C(=O)C(C)(C)[C@@H]5CC[C@]43C)C2C1` (stereo not given in full) stands 4.35 nM.
The figure for `CCCNC(=O)[C@]12CCC(C)(C)CC1C1C(=O)C=C3[C@@]4(C)C=C(C#N)C(=O)C(C)(C)[C@@H]4CC[C@@]3(C)[C@]1(C)CC2` (stereo not given in full) is 1.5 nM.
Compound `CC1(C)CC[C@]2(C(=O)OCC3CC3)CC[C@]3(C)C(C(=O)C=C4[C@@]5(C)C=C(C#N)C(=O)C(C)(C)[C@@H]5CC[C@]43C)C2C1` (stereo not given in full) gave an IC50 of 4.45 nM.
The figure for `CC1(C)CC[C@]2(C(=O)N3CCCC3)CC[C@]3(C)C(C(=O)C=C4[C@@]5(C)C=C(C#N)C(=O)C(C)(C)[C@@H]5CC[C@]43C)C2C1` (stereo not given in full) is 0.8 nM; for `CCCCCCNC(=O)[C@]12CCC(C)(C)CC1C1C(=O)C=C3[C@@]4(C)C=C(C#N)C(=O)C(C)(C)[C@@H]4CC[C@@]3(C)[C@]1(C)CC2` (stereo not given in full) it is 14.9 nM; for `CC1(C)CC[C@]2(C(=O)n3cccn3)CC[C@]3(C)C(C(=O)C=C4[C@@]5(C)C=C(C#N)C(=O)C(C)(C)[C@@H]5CC[C@]43C)C2C1` (stereo not given in full) it is 12 nM.
The compound `CC1(C)CC[C@]2(C(=O)O[C@@H]3O[C@H](CO)[C@@H](O)[C@H](O)[C@H]3O)CC[C@]3(C)C(C(=O)C=C4[C@@]5(C)C=C(C#N)C(=O)C(C)(C)[C@@H]5CC[C@]43C)C2C1` (stereo not given in full) registered an IC50 of 10.1 nM.
Under `C=CCOC(=O)[C@]12CCC(C)(C)CC1C1C(=O)C=C3[C@@]4(C)C=C(C#N)C(=O)C(C)(C)[C@@H]4CC[C@@]3(C)[C@]1(C)CC2` (stereo not given in full) stands 1.33 nM; under `CC1(C)CC[C@]2(C#N)CC[C@]3(C)C(C(=O)C=C4[C@@]5(C)C=C(C#N)C(=O)C(C)(C)[C@@H]5CC[C@]43C)C2C1` (stereo not given in full) [CDDO-CN], 0.0035 nM.
In turn, `CC1(C)CC[C@]2(C(=O)Nc3ccccc3)CC[C@]3(C)C(C(=O)C=C4[C@@]5(C)C=C(C#N)C(=O)C(C)(C)[C@@H]5CC[C@]43C)C2C1` (stereo not given in full) showed an IC50 of 28.6 nM.
The figure for `CC1(C)CC[C@]2(C(=O)NN)CC[C@]3(C)C(C(=O)C=C4[C@@]5(C)C=C(C#N)C(=O)C(C)(C)[C@@H]5CC[C@]43C)C2C1` (stereo not given in full) is 0.26 nM; for `CC1(C)CC[C@]2(C(=O)O)CC[C@]3(C)[C@H](C(=O)C=C4[C@@]5(C)C=C(C#N)C(=O)C(C)(C)[C@@H]5CC[C@]43C)[C@@H]2C1` [BARDOXOLONE] it is 0.44 nM; for `CC1(C)CC[C@]2(C(=O)O)CC[C@]3(C)C(=CC[C@@H]4[C@@]5(C)CC[C@H](O)C(C)(C)[C@@H]5CC[C@]43C)[C@@H]2C1` [OLEANOLIC_ACID] it is over 40000 nM.
Under `CCOC(=O)[C@]12CCC(C)(C)CC1C1C(=O)C=C3[C@@]4(C)C=C(C(=O)O)C(=O)C(C)(C)[C@@H]4CC[C@@]3(C)[C@]1(C)CC2` (stereo not given in full) stands 7.93 nM; under `CC1(C)CC[C@]2(C#N)CC[C@]3(C)C(C(=O)C=C4[C@@]5(C)C=C(C(=O)O)C(=O)C(C)(C)[C@@H]5CC[C@]43C)C2C1` (stereo not given in full), 1.68 nM; under `CC1(C)CC[C@]2(C(=O)N3CCC(N4CCCCC4)CC3)CC[C@]3(C)C(C(=O)C=C4[C@@]5(C)C=C(C#N)C(=O)C(C)(C)[C@@H]5CC[C@]43C)C2C1` (stereo not given in full), 1 nM.
The figure for `CCCCOC(=O)[C@]12CCC(C)(C)CC1C1C(=O)C=C3[C@@]4(C)C=C(C#N)C(=O)C(C)(C)[C@@H]4CC[C@@]3(C)[C@]1(C)CC2` (stereo not given in full) is 6.65 nM; for `CCCCCCCCOC(=O)[C@]12CCC(C)(C)CC1C1C(=O)C=C3[C@@]4(C)C=C(C#N)C(=O)C(C)(C)[C@@H]4CC[C@@]3(C)[C@]1(C)CC2` (stereo not given in full) it is 60.4 nM.
The compound `CCCN(CCC)C(=O)[C@]12CCC(C)(C)CC1C1C(=O)C=C3[C@@]4(C)C=C(C#N)C(=O)C(C)(C)[C@@H]4CC[C@@]3(C)[C@]1(C)CC2` (stereo not given in full) had an IC50 of 32.9 nM.
Under `CC1(C)CC[C@]2(C(=O)N3CCCCC3)CC[C@]3(C)C(C(=O)C=C4[C@@]5(C)C=C(C#N)C(=O)C(C)(C)[C@@H]5CC[C@]43C)C2C1` (stereo not given in full) stands 0.95 nM.
On to `CNC(=O)[C@]12CCC(C)(C)CC1C1C(=O)C=C3[C@@]4(C)C=C(C#N)C(=O)C(C)(C)[C@@H]4CC[C@@]3(C)[C@]1(C)CC2` (stereo not given in full), for which the IC50 is 0.58 nM.
Under `CN(C)C(=O)[C@]12CCC(C)(C)CC1C1C(=O)C=C3[C@@]4(C)C=C(C#N)C(=O)C(C)(C)[C@@H]4CC[C@@]3(C)[C@]1(C)CC2` (stereo not given in full) stands 1.55 nM; under `CC1(C)CC[C@]2(C(N)=O)CC[C@]3(C)C(C(=O)C=C4[C@@]5(C)C=C(C#N)C(=O)C(C)(C)[C@@H]5CC[C@]43C)C2C1` (stereo not given in full), 0.098 nM.
The figure for `COC(=O)[C@]12CCC(C)(C)C[C@H]1[C@H]1C(=O)C=C3[C@@]4(C)C=C(C#N)C(=O)C(C)(C)[C@@H]4CC[C@@]3(C)[C@]1(C)CC2` [BARDOXOLONE METHYL] is 0.11 nM; for `CC1(C)CC[C@]2(C(=O)NCc3ccccc3)CC[C@]3(C)C(C(=O)C=C4[C@@]5(C)C=C(C#N)C(=O)C(C)(C)[C@@H]5CC[C@]43C)C2C1` (stereo not given in full) it is 9.2 nM; for `CC(=O)OC[C@H]1O[C@@H](OC(=O)[C@]23CCC(C)(C)CC2C2C(=O)C=C4[C@@]5(C)C=C(C#N)C(=O)C(C)(C)[C@@H]5CC[C@@]4(C)[C@]2(C)CC3)[C@H](OC(C)=O)[C@H](OC(C)=O)[C@@H]1OC(C)=O` (stereo not given in full) it is 0.07 nM.
The figure for `CC1(C)CC[C@]2(C(=O)N3CCOCC3)CC[C@]3(C)C(C(=O)C=C4[C@@]5(C)C=C(C#N)C(=O)C(C)(C)[C@@H]5CC[C@]43C)C2C1` (stereo not given in full) is 2.4 nM.

One may read the IC50 as the concentration needed to halve the response being measured. Low values mean inhibition by little substance, high ones a need for much substance.
